Results as given in patent publication US9586936B2, “Heteroarylamine derivatives as protein kinase inhibitors” (KOREA INSTITUTE OF SCIENCE AND TECHNOLOGY, priority 2014, dated 2017).
Read-outs that look alike come from different tables or passages of the source.

Tests used:
[1] = molecular target: (Homo sapiens, UniProt P09769); assay: kinase inhibition activity, full kinase panel; type: biochemical; settings: 1 μM of the compound; read-out: kinase activity inhibited (% inhibition)
Procedure: (§1) In order to measure the inhibition activity (% inhibition) of the compound of the present invention against protein kinases, a biochemical assay was conducted using a full kinase panel consisting of 340 kinases. As a representative compound of the present invention, N-(2,6-dichloro-3,5-dimethoxyphenyl)-1-(6-((4-(4-ethylpiperazin-1-yl)phenyl)amino)pyrimidin-4-yl)-1H-benz[d]imidazol-2-amine synthesized in Example 1 was used.
(§2) The kinases whose activity is inhibited by 50% or more when treated with 1 μM of the compound of Example 1 are listed in Table 1.

[2] = molecular target: ABL2 (Homo sapiens, UniProt P42684); assay: kinase inhibition activity, full kinase panel; type: biochemical; settings: 1 μM of the compound; read-out: kinase activity inhibited (% inhibition)
Procedure: as §1, §2

[3] = molecular target: ACK1 (Homo sapiens, UniProt Q07912); assay: kinase inhibition activity, full kinase panel; type: biochemical; settings: 1 μM of the compound; read-out: kinase activity inhibited (% inhibition)
Procedure: as §1, §2

[4] = molecular target: ALK (Homo sapiens, UniProt Q9UM73); assay: kinase inhibition activity, full kinase panel; type: biochemical; settings: 1 μM of the compound; read-out: kinase activity inhibited (% inhibition)
Procedure: as §1, §2

[5] = molecular target: BLK (Homo sapiens, UniProt P51451); assay: kinase inhibition activity, full kinase panel; type: biochemical; settings: 1 μM of the compound; read-out: kinase activity inhibited (% inhibition)
Procedure: as §1, §2

[6] = molecular target: BMX (Homo sapiens, UniProt P51813); assay: kinase inhibition activity, full kinase panel; type: biochemical; settings: 1 μM of the compound; read-out: kinase activity inhibited (% inhibition)
Procedure: as §1, §2

[7] = molecular target: DDR1 (Homo sapiens, UniProt Q08345); assay: kinase inhibition activity, full kinase panel; type: biochemical; settings: 1 μM of the compound; read-out: kinase activity inhibited (% inhibition)
Procedure: as §1, §2

[8] = molecular target: DDR2 (Homo sapiens, UniProt Q16832); assay: kinase inhibition activity, full kinase panel; type: biochemical; settings: 1 μM of the compound; read-out: kinase activity inhibited (% inhibition)
Procedure: as §1, §2

[9] = molecular target: DYRK1 (Homo sapiens, UniProt Q13627); assay: kinase inhibition activity, full kinase panel; type: biochemical; settings: 1 μM of the compound; read-out: kinase activity inhibited (% inhibition)
Procedure: as §1, §2

[10] = molecular target: DYRK1B (Homo sapiens, UniProt Q9Y463); assay: kinase inhibition activity, full kinase panel; type: biochemical; settings: 1 μM of the compound; read-out: kinase activity inhibited (% inhibition)
Procedure: as §1, §2

[11] = molecular target: EGFR (Homo sapiens, UniProt P00533); assay: kinase inhibition activity, full kinase panel; type: biochemical; settings: 1 μM of the compound; read-out: kinase activity inhibited (% inhibition)
Procedure: as §1, §2

[12] = molecular target: FGFR1 (Homo sapiens, UniProt P11362); assay: kinase inhibition activity, full kinase panel; type: biochemical; settings: 1 μM of the compound; read-out: kinase activity inhibited (% inhibition)
Procedure: as §1, §2

[13] = molecular target: FGFR2 (Homo sapiens, UniProt P21802); assay: kinase inhibition activity, full kinase panel; type: biochemical; settings: 1 μM of the compound; read-out: kinase activity inhibited (% inhibition)
Procedure: as §1, §2

[14] = molecular target: FGFR3 (Homo sapiens, UniProt P22607); assay: kinase inhibition activity, full kinase panel; type: biochemical; settings: 1 μM of the compound; read-out: kinase activity inhibited (% inhibition)
Procedure: as §1, §2

[15] = molecular target: FGFR4 (Homo sapiens, UniProt P22455); assay: kinase inhibition activity, full kinase panel; type: biochemical; settings: 1 μM of the compound; read-out: kinase activity inhibited (% inhibition)
Procedure: as §1, §2

[16] = molecular target: FLT3 (Homo sapiens, UniProt P36888); assay: kinase inhibition activity, full kinase panel; type: biochemical; settings: 1 μM of the compound; read-out: kinase activity inhibited (% inhibition)
Procedure: as §1, §2

[17] = molecular target: FLT4 (Homo sapiens, UniProt P35916); assay: kinase inhibition activity, full kinase panel; type: biochemical; settings: 1 μM of the compound; read-out: kinase activity inhibited (% inhibition)
Procedure: as §1, §2

[18] = molecular target: FMS (Homo sapiens, UniProt P07333); assay: kinase inhibition activity, full kinase panel; type: biochemical; settings: 1 μM of the compound; read-out: kinase activity inhibited (% inhibition)
Procedure: as §1, §2

[19] = molecular target: HER2 (Homo sapiens, UniProt P04626); assay: kinase inhibition activity, full kinase panel; type: biochemical; settings: 1 μM of the compound; read-out: kinase activity inhibited (% inhibition)
Procedure: as §1, §2

[20] = molecular target: LIMK1 (Homo sapiens, UniProt P53667); assay: kinase inhibition activity, full kinase panel; type: biochemical; settings: 1 μM of the compound; read-out: kinase activity inhibited (% inhibition)
Procedure: as §1, §2

[21] = molecular target: LYN (Homo sapiens, UniProt P07948); assay: kinase inhibition activity, full kinase panel; type: biochemical; settings: 1 μM of the compound; read-out: kinase activity inhibited (% inhibition)
Procedure: as §1, §2

[22] = molecular target: LYN B (Homo sapiens, UniProt P07948); assay: kinase inhibition activity, full kinase panel; type: biochemical; settings: 1 μM of the compound; read-out: kinase activity inhibited (% inhibition)
Procedure: as §1, §2

[23] = molecular target: ROS (Homo sapiens, UniProt P08922); assay: kinase inhibition activity, full kinase panel; type: biochemical; settings: 1 μM of the compound; read-out: kinase activity inhibited (% inhibition)
Procedure: as §1, §2

[24] = molecular target: SIK2 (Homo sapiens, UniProt Q9H0K1); assay: kinase inhibition activity, full kinase panel; type: biochemical; settings: 1 μM of the compound; read-out: kinase activity inhibited (% inhibition)
Procedure: as §1, §2

[25] = molecular target: TAOK2 (Homo sapiens, UniProt Q9UL54); assay: kinase inhibition activity, full kinase panel; type: biochemical; settings: 1 μM of the compound; read-out: kinase activity inhibited (% inhibition)
Procedure: as §1, §2

[26] = molecular target: YES (Homo sapiens, UniProt P07947); assay: kinase inhibition activity, full kinase panel; type: biochemical; settings: 1 μM of the compound; read-out: kinase activity inhibited (% inhibition)
Procedure: as §1, §2

[27] = molecular target: c-Src (Homo sapiens, UniProt P12931); assay: kinase inhibition activity, full kinase panel; type: biochemical; settings: 1 μM of the compound; read-out: kinase activity inhibited (% inhibition)
Procedure: as §1, §2

[28] = microsomal stability; type: in vitro ADME, Mouse; settings: for microsomal stability (% at time) / microsomal stability (% at time), Negative control (excluding NADPH): Mouse
Procedure: (§3) The microsomal stability of N-(2,6-dichloro-3,5-dimethoxyphenyl)-1-(6-((4-(4-ethylpiperazin-1-yl)phenyl)amino)pyrimidin-4-yl)-1H-benz[d]imidazol-2-amine synthesized in Example 1, as a representative compound of the present invention, was evaluated.

[29] = microsomal stability; type: in vitro ADME, Dog; settings: for microsomal stability (% at time): Dog
Procedure: as §3

[30] = in-vivo PK profile, rat PK; settings: Sprague-Dawley rat; for MRT inf: read-out: MRT(0-∞)
Source text: The in-vivo PK profile (mouse PK/ICR mice and rat PK/Sprague-Dawley rat) of N-(2,6-dichloro-3,5-dimethoxyphenyl)-1-(6-((4-(4-ethylpiperazin-1-yl)phenyl)amino)pyrimidin-4-yl)-1H-benz[d]imidazol-2-amine synthesized in Example 1 is as follows.

Chain of c-Src (P12931 whole entry): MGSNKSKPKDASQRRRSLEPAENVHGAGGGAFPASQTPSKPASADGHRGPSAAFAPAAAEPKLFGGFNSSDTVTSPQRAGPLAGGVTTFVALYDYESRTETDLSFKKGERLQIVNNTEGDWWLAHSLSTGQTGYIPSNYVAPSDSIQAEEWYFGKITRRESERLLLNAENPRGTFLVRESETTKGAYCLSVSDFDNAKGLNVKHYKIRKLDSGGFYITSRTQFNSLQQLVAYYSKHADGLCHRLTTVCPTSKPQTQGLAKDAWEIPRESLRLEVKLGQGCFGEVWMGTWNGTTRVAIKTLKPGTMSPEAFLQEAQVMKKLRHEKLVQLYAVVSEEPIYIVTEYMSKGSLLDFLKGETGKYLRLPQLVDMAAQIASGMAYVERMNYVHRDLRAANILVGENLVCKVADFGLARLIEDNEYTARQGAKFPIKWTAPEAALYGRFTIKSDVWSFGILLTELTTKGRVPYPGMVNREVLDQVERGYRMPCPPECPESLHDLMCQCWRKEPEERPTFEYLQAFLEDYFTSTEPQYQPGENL
Chain of ABL2 (P42684 whole entry): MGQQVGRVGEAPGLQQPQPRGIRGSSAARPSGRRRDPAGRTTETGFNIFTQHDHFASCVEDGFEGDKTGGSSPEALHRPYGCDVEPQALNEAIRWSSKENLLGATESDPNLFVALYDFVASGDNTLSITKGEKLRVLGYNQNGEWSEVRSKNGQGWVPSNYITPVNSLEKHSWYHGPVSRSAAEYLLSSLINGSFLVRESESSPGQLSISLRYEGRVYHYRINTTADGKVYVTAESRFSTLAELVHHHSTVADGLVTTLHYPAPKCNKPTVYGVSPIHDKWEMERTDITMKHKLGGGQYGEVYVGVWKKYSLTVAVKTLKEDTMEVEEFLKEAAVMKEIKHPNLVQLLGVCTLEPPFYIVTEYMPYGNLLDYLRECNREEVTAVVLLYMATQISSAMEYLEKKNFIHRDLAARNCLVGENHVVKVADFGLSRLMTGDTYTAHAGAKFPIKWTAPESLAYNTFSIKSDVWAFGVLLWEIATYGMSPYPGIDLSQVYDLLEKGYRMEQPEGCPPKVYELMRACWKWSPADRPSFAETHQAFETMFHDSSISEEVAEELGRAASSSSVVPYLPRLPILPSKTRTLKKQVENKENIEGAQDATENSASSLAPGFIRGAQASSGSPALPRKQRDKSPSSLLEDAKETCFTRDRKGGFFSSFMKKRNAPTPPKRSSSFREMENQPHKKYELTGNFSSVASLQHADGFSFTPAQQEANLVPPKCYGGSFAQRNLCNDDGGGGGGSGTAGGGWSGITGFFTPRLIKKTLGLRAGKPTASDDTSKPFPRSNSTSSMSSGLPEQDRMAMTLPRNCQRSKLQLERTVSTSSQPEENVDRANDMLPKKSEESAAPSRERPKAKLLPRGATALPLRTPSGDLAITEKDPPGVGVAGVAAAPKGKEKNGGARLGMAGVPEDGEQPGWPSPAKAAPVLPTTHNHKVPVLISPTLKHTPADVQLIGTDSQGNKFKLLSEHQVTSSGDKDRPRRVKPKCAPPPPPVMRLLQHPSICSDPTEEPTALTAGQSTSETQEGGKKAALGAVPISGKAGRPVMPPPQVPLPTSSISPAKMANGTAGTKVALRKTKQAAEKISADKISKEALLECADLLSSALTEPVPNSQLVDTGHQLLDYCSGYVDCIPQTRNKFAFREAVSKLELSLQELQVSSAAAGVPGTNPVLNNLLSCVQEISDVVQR
Chain of SIK2 (Q9H0K1 whole entry): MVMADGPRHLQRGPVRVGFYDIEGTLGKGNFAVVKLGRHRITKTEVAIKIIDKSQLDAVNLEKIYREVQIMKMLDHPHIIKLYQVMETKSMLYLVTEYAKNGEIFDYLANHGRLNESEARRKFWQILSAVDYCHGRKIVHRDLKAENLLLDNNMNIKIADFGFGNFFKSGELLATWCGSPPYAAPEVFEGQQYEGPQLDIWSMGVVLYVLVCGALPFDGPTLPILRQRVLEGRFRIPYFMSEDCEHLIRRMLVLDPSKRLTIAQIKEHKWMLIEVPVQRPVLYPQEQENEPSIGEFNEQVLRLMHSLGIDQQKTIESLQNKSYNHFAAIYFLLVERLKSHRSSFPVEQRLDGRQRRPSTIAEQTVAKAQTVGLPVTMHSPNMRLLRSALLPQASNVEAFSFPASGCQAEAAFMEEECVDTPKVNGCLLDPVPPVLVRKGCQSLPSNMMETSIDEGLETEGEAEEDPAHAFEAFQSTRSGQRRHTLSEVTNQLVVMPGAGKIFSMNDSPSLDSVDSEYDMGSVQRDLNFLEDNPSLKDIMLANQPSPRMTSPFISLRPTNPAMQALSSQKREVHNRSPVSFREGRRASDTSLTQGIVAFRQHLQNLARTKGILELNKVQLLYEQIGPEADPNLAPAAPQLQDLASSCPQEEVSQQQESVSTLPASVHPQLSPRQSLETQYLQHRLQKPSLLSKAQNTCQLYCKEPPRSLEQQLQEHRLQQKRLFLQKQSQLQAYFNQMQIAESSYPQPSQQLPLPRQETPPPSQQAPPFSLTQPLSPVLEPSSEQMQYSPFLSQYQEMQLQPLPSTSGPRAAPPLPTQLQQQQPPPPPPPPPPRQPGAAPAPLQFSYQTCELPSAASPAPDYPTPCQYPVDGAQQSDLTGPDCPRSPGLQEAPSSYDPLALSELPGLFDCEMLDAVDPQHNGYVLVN
Chain of BLK (P51451 whole entry): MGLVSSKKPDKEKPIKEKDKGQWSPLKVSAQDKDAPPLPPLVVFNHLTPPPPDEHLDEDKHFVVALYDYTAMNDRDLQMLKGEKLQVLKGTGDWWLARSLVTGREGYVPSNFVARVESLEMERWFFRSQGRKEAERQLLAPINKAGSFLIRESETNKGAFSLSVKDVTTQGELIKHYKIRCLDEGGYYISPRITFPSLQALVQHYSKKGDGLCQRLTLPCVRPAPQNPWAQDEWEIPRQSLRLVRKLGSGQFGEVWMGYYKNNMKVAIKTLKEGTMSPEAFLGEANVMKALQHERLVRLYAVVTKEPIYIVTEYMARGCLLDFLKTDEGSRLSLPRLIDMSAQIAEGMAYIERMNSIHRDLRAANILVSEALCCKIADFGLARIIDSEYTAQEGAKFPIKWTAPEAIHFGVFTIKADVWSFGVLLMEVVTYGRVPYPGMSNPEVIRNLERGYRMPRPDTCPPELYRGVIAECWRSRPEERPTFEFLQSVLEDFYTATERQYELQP
Chain of DDR1 (Q08345 19-913): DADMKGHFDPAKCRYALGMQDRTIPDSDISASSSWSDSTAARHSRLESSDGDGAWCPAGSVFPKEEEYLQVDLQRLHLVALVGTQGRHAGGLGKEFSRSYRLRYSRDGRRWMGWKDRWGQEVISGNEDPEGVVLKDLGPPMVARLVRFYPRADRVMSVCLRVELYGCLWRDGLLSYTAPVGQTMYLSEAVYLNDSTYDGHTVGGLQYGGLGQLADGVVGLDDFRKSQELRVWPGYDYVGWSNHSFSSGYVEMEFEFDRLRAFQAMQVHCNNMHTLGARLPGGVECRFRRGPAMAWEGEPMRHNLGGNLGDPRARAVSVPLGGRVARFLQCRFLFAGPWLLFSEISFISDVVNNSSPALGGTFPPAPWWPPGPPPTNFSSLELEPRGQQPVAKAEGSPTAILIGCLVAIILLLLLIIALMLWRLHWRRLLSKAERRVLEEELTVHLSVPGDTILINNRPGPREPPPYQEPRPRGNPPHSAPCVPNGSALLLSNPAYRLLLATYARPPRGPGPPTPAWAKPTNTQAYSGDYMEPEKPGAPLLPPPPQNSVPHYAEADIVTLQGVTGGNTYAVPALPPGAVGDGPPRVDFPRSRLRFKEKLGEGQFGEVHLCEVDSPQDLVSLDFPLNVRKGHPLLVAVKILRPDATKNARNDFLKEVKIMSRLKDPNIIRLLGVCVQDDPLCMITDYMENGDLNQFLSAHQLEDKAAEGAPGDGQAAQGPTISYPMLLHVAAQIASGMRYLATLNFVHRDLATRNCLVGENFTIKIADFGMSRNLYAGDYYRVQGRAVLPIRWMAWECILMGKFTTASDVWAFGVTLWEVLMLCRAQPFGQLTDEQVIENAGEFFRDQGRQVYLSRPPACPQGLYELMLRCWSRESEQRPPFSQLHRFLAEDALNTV
Chain of LYN B (P07948 1-491 isoform P07948-2): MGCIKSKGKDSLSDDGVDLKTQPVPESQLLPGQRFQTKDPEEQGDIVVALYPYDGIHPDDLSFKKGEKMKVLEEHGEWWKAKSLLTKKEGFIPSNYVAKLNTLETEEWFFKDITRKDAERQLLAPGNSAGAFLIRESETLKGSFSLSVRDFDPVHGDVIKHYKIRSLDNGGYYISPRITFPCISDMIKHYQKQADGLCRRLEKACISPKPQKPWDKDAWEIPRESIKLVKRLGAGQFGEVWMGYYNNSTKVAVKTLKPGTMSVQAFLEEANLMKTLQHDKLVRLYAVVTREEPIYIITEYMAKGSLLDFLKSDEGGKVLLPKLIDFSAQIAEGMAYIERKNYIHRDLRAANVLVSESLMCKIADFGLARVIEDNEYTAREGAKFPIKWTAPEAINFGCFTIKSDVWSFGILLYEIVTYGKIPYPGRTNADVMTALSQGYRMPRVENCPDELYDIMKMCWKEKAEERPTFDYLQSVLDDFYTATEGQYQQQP
Chain of LYN (P07948 whole entry): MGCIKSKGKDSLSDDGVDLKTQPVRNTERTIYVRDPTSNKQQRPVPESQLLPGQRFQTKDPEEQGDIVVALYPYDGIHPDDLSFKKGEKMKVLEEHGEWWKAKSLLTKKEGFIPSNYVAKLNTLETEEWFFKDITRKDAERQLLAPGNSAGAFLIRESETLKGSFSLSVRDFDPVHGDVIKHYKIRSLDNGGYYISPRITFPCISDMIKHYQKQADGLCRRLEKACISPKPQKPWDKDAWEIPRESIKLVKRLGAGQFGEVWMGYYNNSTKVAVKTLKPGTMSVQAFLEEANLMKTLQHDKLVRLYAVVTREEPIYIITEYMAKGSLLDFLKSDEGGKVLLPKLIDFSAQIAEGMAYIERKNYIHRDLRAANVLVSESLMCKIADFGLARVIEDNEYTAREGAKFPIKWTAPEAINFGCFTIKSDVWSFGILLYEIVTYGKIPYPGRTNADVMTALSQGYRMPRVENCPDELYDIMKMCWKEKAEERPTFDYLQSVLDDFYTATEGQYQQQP

Question: Which inhibition at 1 µM [1] does the source give for `CCN1CCN(c2ccc(Nc3cc(-n4c(Nc5c(Cl)c(OC)cc(OC)c5Cl)nc5ccccc54)ncn3)cc2)CC1` [Example 1, N-(2,6-dichloro-3,5-dimethoxyphenyl)-1-(6-((4-(4-ethylpiperazin-1-yl)phenyl)amino)pyrimidin-4-yl)-1H-benz[d]imidazol-2-amine] here?
Answer: ≥ 50%

Question: What about the inhibition at 1 µM [2] of the same molecule?
Answer: ≥ 50%

Question: What about the inhibition at 1 µM [3] of the same molecule?
Answer: ≥ 50%

Question: What about the inhibition at 1 µM [4] of the same molecule?
Answer: ≥ 50%

Question: What about the inhibition at 1 µM [5] of the same molecule?
Answer: ≥ 50%

Question: What about the inhibition at 1 µM [6] of the same molecule?
Answer: ≥ 50%

Question: What about the inhibition at 1 µM [7] of the same molecule?
Answer: ≥ 50%

Question: And the inhibition at 1 µM [8]?
Answer: ≥ 50%

Question: And the inhibition at 1 µM [9]?
Answer: ≥ 50%

Question: What about the inhibition at 1 µM [10] of the same molecule?
Answer: ≥ 50%

Question: What about the inhibition at 1 µM [11] of the same molecule?
Answer: ≥ 50%

Question: And the inhibition at 1 µM [12]?
Answer: ≥ 50%

Question: What about the inhibition at 1 µM [13] of the same molecule?
Answer: ≥ 50%

Question: And the inhibition at 1 µM [14]?
Answer: ≥ 50%

Question: And the inhibition at 1 µM [15]?
Answer: ≥ 50%

Question: What about the inhibition at 1 µM [16] of the same molecule?
Answer: ≥ 50%

Question: And the inhibition at 1 µM [17]?
Answer: ≥ 50%

Question: What about the inhibition at 1 µM [18] of the same molecule?
Answer: ≥ 50%

Question: And the inhibition at 1 µM [19]?
Answer: ≥ 50%

Question: And the inhibition at 1 µM [20]?
Answer: ≥ 50%

Question: What about the inhibition at 1 µM [21] of the same molecule?
Answer: ≥ 50%

Question: And the inhibition at 1 µM [22]?
Answer: ≥ 50%

Question: And the inhibition at 1 µM [23]?
Answer: ≥ 50%

Question: And the inhibition at 1 µM [24]?
Answer: ≥ 50%

Question: And the inhibition at 1 µM [25]?
Answer: ≥ 50%

Question: What about the inhibition at 1 µM [26] of the same molecule?
Answer: ≥ 50%

Question: What about the inhibition at 1 µM [27] of the same molecule?
Answer: ≥ 50%

Question: And the “microsomal stability (% at time)” value ([28]; 0 min)?
Answer: 100.00%

Question: And the “microsomal stability (% at time), Negative control (excluding NADPH)” value ([28]; 0 min)?
Answer: 100.00%

Question: And the “microsomal stability (% at time)” value ([28]; 5 min)?
Answer: 62.73%

Question: And the “microsomal stability (% at time), Negative control (excluding NADPH)” value ([28]; 5 min)?
Answer: 103.56%

Question: And the “microsomal stability (% at time)” value ([28]; 10 min)?
Answer: 40.77%

Question: What about the “microsomal stability (% at time), Negative control (excluding NADPH)” value ([28]; 10 min) of the same molecule?
Answer: 103.56%

Question: And the “microsomal stability (% at time)” value ([28]; 15 min)?
Answer: 29.27%

Question: And the “microsomal stability (% at time), Negative control (excluding NADPH)” value ([28]; 15 min)?
Answer: 102.67%

Question: And the “microsomal stability (% at time)” value ([28]; 30 min)?
Answer: 11.88%

Question: And the “microsomal stability (% at time), Negative control (excluding NADPH)” value ([28]; 30 min)?
Answer: 106.67%

Question: And the “microsomal stability (% at time)” value ([28]; 45 min)?
Answer: 3.87%

Question: And the “microsomal stability (% at time), Negative control (excluding NADPH)” value ([28]; 45 min)?
Answer: 106.67%

Question: And the “microsomal stability (% at time)” value ([28]; 60 min)?
Answer: 3.64%

Question: What about the “microsomal stability (% at time), Negative control (excluding NADPH)” value ([28]; 60 min) of the same molecule?
Answer: 104.44%

Question: And the half-life ([28]; microsomes, Mouse microsomal stability)?
Answer: 9.93 min

Question: And the “microsomal stability (% at time)” value ([29]; 0 min)?
Answer: 100.00%

Question: And the “microsomal stability (% at time)” value ([29]; 5 min)?
Answer: 77.02%

Question: What about the “microsomal stability (% at time)” value ([29]; 10 min) of the same molecule?
Answer: 57.41%

Question: What about the “microsomal stability (% at time)” value ([29]; 15 min) of the same molecule?
Answer: 44.70%

Question: And the “microsomal stability (% at time)” value ([29]; 30 min)?
Answer: 21.03%

Question: What about the “microsomal stability (% at time)” value ([29]; 45 min) of the same molecule?
Answer: 8.23%

Question: And the “microsomal stability (% at time)” value ([29]; 60 min)?
Answer: 5.02%

Question: What about the half-life ([29]; microsomes, Dog microsomal stability) of the same molecule?
Answer: 0.225 h

Question: And the “F*” value ([30]; PO 5 mg/kg)?
Answer: 13.46%

Question: What about the AUC(0-inf) ([30]; in vivo, IV 5 mg/kg) of the same molecule?
Answer: 884 ng·h/mL

Question: And the AUC(0-t) ([30]; in vivo, IV 5 mg/kg)?
Answer: 844 ng·h/mL

Question: What about the Cmax ([30]; in vivo, IV 5 mg/kg) of the same molecule?
Answer: 271 ng/mL

Question: What about the Tmax ([30]; in vivo, IV 5 mg/kg) of the same molecule?
Answer: 0.083 h

Question: What about the clearance ([30]; in vivo, IV 5 mg/kg) of the same molecule?
Answer: 97.3 mL/min/kg

Question: What about the half-life ([30]; in vivo, IV 5 mg/kg) of the same molecule?
Answer: 5.75 h

Question: What about the MRT inf ([30]; in vivo, IV 5 mg/kg) of the same molecule?
Answer: 6.37 h

Question: What about the Vd ([30]; in vivo, IV 5 mg/kg, read-out: Vz) of the same molecule?
Answer: 48 L/kg

Question: And the AUC(0-inf) ([30]; in vivo, PO 5 mg/kg)?
Answer: 652 ng·h/mL

Question: What about the AUC(0-t) ([30]; in vivo, PO 5 mg/kg) of the same molecule?
Answer: 129 ng·h/mL

Question: And the Cmax ([30]; in vivo, PO 5 mg/kg)?
Answer: 11.6 ng/mL

Question: And the Tmax ([30]; in vivo, PO 5 mg/kg)?
Answer: 5.33 h

Question: And the half-life ([30]; in vivo, PO 5 mg/kg)?
Answer: 9.14 h

Question: What about the MRT inf ([30]; in vivo, PO 5 mg/kg) of the same molecule?
Answer: 12.6 h
